# Source: PMC12670405, “Second-Generation AURKA-Targeting PROTACs: Structural Optimization toward in Vivo Degradation in Neuroblastoma” (Journal of Medicinal Chemistry, 2025)
# What was measured:
# Assay in all cases: KINOMEscan scanMAX
# Format in all cases: binding
# Details in all cases: read-out: Percent Control
# [1] = target: T1, PKN2 (Homo sapiens, UniProt Q16513)
# T1 construct: purchased Eurofins Discovery (DiscoverX KINOMEscan scanMAX)
# Protocol: (§1) The kinome-wide binding assay was performed by Eurofins Discovery using the scanMAX screening platform. More information can be found on the Eurofins Discovery Web site.
# [2] = target: T2, AMPK-alpha2 (Homo sapiens, UniProt P54646)
# T2 construct: purchased Eurofins Discovery (DiscoverX KINOMEscan scanMAX)
# Protocol: as §1
# [3] = target: T3, SYK (Homo sapiens, UniProt P43405)
# T3 construct: purchased Eurofins Discovery (DiscoverX KINOMEscan scanMAX)
# Protocol: as §1
# [4] = target: T4, CHEK1 (Homo sapiens, UniProt O14757)
# T4 construct: purchased Eurofins Discovery (DiscoverX KINOMEscan scanMAX)
# Protocol: as §1
# [5] = target: T5, ALK (Homo sapiens, UniProt Q9UM73)
# T5 construct: purchased Eurofins Discovery (DiscoverX KINOMEscan scanMAX)
# T5 sequence (Q9UM73 19-1620): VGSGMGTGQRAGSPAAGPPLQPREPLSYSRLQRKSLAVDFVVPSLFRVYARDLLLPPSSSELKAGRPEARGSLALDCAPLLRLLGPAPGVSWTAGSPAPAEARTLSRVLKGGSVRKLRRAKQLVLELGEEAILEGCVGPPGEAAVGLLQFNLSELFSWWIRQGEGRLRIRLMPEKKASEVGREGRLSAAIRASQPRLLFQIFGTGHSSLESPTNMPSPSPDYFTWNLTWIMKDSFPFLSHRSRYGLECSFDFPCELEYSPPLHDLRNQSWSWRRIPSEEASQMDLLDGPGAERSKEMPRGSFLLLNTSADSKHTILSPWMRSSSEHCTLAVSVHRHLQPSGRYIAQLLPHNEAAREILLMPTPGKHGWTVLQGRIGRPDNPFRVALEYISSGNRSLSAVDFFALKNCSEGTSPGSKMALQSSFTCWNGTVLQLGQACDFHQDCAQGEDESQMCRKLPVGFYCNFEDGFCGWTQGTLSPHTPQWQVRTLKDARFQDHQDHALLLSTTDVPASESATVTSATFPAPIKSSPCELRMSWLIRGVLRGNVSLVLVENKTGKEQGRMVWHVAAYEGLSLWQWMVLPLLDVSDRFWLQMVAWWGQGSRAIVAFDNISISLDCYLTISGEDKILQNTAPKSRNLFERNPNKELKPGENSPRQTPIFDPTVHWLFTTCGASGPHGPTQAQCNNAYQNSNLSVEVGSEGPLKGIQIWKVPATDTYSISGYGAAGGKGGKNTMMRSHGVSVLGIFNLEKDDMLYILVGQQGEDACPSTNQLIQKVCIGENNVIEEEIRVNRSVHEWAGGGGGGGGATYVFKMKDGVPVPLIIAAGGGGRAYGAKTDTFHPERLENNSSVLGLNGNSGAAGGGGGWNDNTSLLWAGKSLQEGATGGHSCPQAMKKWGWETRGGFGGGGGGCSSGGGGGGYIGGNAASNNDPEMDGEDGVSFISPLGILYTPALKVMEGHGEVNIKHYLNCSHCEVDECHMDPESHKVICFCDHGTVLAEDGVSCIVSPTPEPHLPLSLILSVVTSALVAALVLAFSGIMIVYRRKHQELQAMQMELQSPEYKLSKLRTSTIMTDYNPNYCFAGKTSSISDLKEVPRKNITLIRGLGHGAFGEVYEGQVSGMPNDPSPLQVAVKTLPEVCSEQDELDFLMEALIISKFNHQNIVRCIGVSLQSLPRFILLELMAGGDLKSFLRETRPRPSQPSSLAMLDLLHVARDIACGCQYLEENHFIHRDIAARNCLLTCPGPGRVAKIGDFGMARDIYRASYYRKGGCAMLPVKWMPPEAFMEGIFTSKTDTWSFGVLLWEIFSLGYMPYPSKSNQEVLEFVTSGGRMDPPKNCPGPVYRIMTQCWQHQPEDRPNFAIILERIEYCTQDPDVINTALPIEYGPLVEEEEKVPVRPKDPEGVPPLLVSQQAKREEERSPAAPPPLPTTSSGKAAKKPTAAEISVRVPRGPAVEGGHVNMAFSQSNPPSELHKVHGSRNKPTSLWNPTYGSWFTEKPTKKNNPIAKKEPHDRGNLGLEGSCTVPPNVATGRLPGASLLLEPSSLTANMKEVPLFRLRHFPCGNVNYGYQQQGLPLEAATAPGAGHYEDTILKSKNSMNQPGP
# Protocol: as §1
# [6] = target: T6, STK36 (Homo sapiens, UniProt Q9NRP7)
# T6 construct: purchased Eurofins Discovery (DiscoverX KINOMEscan scanMAX)
# Protocol: as §1
# [7] = target: T7, TBK1 (Homo sapiens, UniProt Q9UHD2)
# T7 construct: purchased Eurofins Discovery (DiscoverX KINOMEscan scanMAX)
# Protocol: as §1
# [8] = target: T8, ADCK3 (Homo sapiens, UniProt Q8NI60)
# T8 construct: purchased Eurofins Discovery (DiscoverX KINOMEscan scanMAX)
# Protocol: as §1
# [9] = target: T9, CDKL5 (Homo sapiens, UniProt O76039)
# T9 construct: purchased Eurofins Discovery (DiscoverX KINOMEscan scanMAX)
# Protocol: as §1
# [10] = target: T10, MAP3K4 (Homo sapiens, UniProt Q9Y6R4)
# T10 construct: purchased Eurofins Discovery (DiscoverX KINOMEscan scanMAX)
# Protocol: as §1
# [11] = target: T11, CAMK1D (Homo sapiens, UniProt Q8IU85)
# T11 construct: purchased Eurofins Discovery (DiscoverX KINOMEscan scanMAX)
# Protocol: as §1
# [12] = target: T12, RSK3(Kin.Dom.2-C-terminal) (Homo sapiens, UniProt Q15349)
# T12 construct: RSK3(Kin.Dom.2-C-terminal); purchased Eurofins Discovery (DiscoverX KINOMEscan scanMAX)
# Protocol: as §1
# [13] = target: T13, RIPK4 (Homo sapiens, UniProt P57078)
# T13 construct: purchased Eurofins Discovery (DiscoverX KINOMEscan scanMAX)
# Protocol: as §1
# [14] = target: T14, PFTK1 (Homo sapiens, UniProt O94921)
# T14 construct: purchased Eurofins Discovery (DiscoverX KINOMEscan scanMAX)
# T14 sequence (O94921 whole entry): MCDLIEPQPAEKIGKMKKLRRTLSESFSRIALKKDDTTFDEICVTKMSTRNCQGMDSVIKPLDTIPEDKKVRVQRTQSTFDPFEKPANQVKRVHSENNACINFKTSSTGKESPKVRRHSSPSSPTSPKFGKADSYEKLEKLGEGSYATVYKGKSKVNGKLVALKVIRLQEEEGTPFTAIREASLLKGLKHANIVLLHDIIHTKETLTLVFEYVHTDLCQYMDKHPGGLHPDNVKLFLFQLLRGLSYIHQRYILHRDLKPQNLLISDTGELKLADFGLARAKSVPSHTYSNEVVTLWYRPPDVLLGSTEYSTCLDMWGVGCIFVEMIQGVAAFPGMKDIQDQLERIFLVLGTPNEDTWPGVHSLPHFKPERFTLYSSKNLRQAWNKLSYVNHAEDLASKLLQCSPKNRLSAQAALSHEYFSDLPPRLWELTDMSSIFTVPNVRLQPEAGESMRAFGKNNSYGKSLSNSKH
# Protocol: as §1
# [15] = target: T15, MAP4K5 (Homo sapiens, UniProt Q9Y4K4)
# T15 construct: purchased Eurofins Discovery (DiscoverX KINOMEscan scanMAX)
# Protocol: as §1
# [16] = target: T16, LIMK2 (Homo sapiens, UniProt P53671)
# T16 construct: purchased Eurofins Discovery (DiscoverX KINOMEscan scanMAX)
# Protocol: as §1
# [17] = target: T17, NEK5 (Homo sapiens, UniProt Q6P3R8)
# T17 construct: purchased Eurofins Discovery (DiscoverX KINOMEscan scanMAX)
# T17 sequence (Q6P3R8 whole entry): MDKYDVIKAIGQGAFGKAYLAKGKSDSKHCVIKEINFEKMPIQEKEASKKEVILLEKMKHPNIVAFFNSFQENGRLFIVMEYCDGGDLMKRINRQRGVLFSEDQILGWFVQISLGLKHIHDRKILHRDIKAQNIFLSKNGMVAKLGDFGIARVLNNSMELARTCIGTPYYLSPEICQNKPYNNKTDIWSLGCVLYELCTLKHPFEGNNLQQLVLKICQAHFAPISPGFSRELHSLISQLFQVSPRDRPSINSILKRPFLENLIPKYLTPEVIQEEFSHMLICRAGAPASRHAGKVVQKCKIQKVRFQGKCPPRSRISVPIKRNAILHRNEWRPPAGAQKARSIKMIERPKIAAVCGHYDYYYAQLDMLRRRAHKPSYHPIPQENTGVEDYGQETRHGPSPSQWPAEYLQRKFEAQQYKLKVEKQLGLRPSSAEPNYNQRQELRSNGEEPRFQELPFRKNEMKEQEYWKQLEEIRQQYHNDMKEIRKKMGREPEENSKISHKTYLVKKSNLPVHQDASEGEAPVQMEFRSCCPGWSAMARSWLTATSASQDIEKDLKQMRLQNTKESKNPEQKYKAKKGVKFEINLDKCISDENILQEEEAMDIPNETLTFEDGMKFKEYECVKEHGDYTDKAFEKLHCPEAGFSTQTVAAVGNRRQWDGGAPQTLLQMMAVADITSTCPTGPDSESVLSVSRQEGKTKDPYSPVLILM
# Protocol: as §1
# [18] = target: T18, ABL1-phosphorylated (Homo sapiens, UniProt P00519)
# T18 construct: purchased Eurofins Discovery (DiscoverX KINOMEscan scanMAX)
# Protocol: as §1
# [19] = target: T19, PAK1 (Homo sapiens, UniProt Q13153)
# T19 construct: purchased Eurofins Discovery (DiscoverX KINOMEscan scanMAX)
# Protocol: as §1
# [20] = target: T20, PIK3CA(I800L) (Homo sapiens, UniProt P42336, I800L)
# T20 construct: purchased Eurofins Discovery (DiscoverX KINOMEscan scanMAX)
# Protocol: as §1
# [21] = target: T21, PYK2 (Homo sapiens, UniProt Q14289)
# T21 construct: purchased Eurofins Discovery (DiscoverX KINOMEscan scanMAX)
# Protocol: as §1
# [22] = target: T22, PRKCQ (Homo sapiens, UniProt Q04759)
# T22 construct: purchased Eurofins Discovery (DiscoverX KINOMEscan scanMAX)
# Protocol: as §1
# [23] = target: T23, PIK3CA(C420R) (Homo sapiens, UniProt P42336, C420R)
# T23 construct: purchased Eurofins Discovery (DiscoverX KINOMEscan scanMAX)
# Protocol: as §1
# [24] = target: T24, EGFR(L747-E749del, A750P) (Homo sapiens, UniProt P00533, A750P/DEL747-749)
# T24 construct: purchased Eurofins Discovery (DiscoverX KINOMEscan scanMAX)
# Protocol: as §1
# [25] = target: T25, KIT(V559D,T670I) (Homo sapiens, UniProt P10721, T670I/V559D)
# T25 construct: purchased Eurofins Discovery (DiscoverX KINOMEscan scanMAX)
# Protocol: as §1
# [26] = target: T26, ABL1(T315I)-phosphorylated (Homo sapiens, UniProt P00519, T315I)
# T26 construct: purchased Eurofins Discovery (DiscoverX KINOMEscan scanMAX)
# Protocol: as §1
# [27] = target: T27, AURKC (Homo sapiens, UniProt Q9UQB9)
# T27 construct: purchased Eurofins Discovery (DiscoverX KINOMEscan scanMAX)
# T27 sequence (Q9UQB9 whole entry): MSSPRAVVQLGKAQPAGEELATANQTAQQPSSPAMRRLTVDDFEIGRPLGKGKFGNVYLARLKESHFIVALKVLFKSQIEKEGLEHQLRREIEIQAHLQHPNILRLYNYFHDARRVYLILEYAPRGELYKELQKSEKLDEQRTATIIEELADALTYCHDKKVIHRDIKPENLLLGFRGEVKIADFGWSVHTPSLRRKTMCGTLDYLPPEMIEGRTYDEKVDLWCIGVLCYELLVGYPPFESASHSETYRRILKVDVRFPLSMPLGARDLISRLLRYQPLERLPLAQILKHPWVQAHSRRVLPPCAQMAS
# Protocol: as §1
# [28] = target: T28, ARK5 (Homo sapiens, UniProt O60285)
# T28 construct: purchased Eurofins Discovery (DiscoverX KINOMEscan scanMAX)
# Protocol: as §1
# [29] = target: T29, PLK4 (Homo sapiens, UniProt O00444)
# T29 construct: purchased Eurofins Discovery (DiscoverX KINOMEscan scanMAX)
# Protocol: as §1
# [30] = target: T30, FLT1 (Homo sapiens, UniProt P17948)
# T30 construct: purchased Eurofins Discovery (DiscoverX KINOMEscan scanMAX)
# T30 sequence (P17948 27-1338): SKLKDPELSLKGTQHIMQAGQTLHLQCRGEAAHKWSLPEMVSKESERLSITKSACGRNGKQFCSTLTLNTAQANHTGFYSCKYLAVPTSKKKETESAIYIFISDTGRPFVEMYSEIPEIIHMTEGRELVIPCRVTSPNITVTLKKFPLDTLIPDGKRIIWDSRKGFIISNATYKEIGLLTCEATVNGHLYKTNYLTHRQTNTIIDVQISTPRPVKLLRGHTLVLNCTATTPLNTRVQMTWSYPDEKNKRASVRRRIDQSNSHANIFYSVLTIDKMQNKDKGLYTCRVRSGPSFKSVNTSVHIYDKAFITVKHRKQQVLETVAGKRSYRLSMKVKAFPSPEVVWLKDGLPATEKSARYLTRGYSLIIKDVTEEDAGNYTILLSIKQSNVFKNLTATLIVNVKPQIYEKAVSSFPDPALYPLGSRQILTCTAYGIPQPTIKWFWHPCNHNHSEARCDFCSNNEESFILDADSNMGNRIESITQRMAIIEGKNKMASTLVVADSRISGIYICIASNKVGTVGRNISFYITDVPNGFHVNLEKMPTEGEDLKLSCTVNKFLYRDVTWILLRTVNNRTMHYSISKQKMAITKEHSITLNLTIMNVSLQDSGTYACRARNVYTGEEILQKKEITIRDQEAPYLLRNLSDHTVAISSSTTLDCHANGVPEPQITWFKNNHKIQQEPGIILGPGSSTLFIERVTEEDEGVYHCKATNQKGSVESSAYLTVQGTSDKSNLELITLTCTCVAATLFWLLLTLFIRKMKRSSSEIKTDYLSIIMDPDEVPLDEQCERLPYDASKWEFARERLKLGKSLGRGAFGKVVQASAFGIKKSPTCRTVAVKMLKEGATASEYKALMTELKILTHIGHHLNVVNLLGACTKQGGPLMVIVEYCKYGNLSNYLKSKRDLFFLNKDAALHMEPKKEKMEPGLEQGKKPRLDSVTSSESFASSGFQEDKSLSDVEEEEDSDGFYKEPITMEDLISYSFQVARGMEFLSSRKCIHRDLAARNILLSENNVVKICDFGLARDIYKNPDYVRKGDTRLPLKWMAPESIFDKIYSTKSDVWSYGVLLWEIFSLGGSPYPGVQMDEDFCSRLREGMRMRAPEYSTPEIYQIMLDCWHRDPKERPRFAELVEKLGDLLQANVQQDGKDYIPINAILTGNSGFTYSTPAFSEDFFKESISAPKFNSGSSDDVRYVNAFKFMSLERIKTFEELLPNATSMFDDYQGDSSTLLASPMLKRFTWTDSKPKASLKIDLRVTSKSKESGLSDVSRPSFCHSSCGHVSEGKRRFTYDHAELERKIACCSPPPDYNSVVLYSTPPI
# Protocol: as §1
# [31] = target: T31, DMPK (Homo sapiens, UniProt Q09013)
# T31 construct: purchased Eurofins Discovery (DiscoverX KINOMEscan scanMAX)
# T31 sequence (Q09013 whole entry): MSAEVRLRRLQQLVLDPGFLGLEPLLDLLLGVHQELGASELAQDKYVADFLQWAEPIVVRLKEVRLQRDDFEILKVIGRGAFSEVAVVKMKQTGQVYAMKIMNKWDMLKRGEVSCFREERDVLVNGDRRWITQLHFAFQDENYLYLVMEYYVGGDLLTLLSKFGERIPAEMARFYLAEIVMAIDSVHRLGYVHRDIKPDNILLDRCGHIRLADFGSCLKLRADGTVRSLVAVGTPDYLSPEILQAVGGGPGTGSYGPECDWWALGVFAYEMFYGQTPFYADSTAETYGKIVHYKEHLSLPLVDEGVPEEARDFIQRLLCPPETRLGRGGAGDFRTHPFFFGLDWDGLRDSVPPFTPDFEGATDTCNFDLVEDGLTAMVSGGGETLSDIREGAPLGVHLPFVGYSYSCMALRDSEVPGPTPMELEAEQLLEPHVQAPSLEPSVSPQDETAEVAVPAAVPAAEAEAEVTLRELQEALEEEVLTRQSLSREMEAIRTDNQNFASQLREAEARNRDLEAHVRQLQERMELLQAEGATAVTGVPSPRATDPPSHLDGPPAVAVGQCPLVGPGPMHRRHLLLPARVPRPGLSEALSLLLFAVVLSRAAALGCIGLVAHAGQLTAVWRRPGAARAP
# Protocol: as §1
# [32] = target: T32, GRK7 (Homo sapiens, UniProt Q8WTQ7)
# T32 construct: purchased Eurofins Discovery (DiscoverX KINOMEscan scanMAX)
# Protocol: as §1
smiles,measurement,setting,value
Cc1cc(Nc2ccc(F)c(CC3(C(=O)N4CCC(F)(CN5CCN(c6ccc(N7CCC(=O)NC7=O)cn6)CC5)CC4)CCN(Cc4cccc(Cl)c4F)CC3)n2)n[nH]1 [SK5527],remaining binding at 0.1 µM,[1]; 100 nM,81%
same,remaining binding at 1 µM,[1]; 1000 nM,81%
same,remaining binding at 0.1 µM,[2]; 100 nM,93%
same,remaining binding at 1 µM,[2]; 1000 nM,100%
same,remaining binding at 0.1 µM,[3]; 100 nM,83%
same,remaining binding at 1 µM,[3]; 1000 nM,100%
same,remaining binding at 0.1 µM,[4]; 100 nM,100%
same,remaining binding at 1 µM,[4]; 1000 nM,100%
same,remaining binding at 0.1 µM,[5]; 100 nM,73%
same,remaining binding at 1 µM,[5]; 1000 nM,62%
same,remaining binding at 0.1 µM,[6]; 100 nM,71%
same,remaining binding at 1 µM,[6]; 1000 nM,94%
same,remaining binding at 0.1 µM,[7]; 100 nM,99%
same,remaining binding at 1 µM,[7]; 1000 nM,85%
same,remaining binding at 0.1 µM,[8]; 100 nM,100%
same,remaining binding at 1 µM,[8]; 1000 nM,99%
same,remaining binding at 0.1 µM,[9]; 100 nM,94%
same,remaining binding at 1 µM,[9]; 1000 nM,81%
same,remaining binding at 0.1 µM,[10]; 100 nM,72%
same,remaining binding at 1 µM,[10]; 1000 nM,87%
same,remaining binding at 0.1 µM,[11]; 100 nM,100%
same,remaining binding at 1 µM,[11]; 1000 nM,100%
same,remaining binding at 0.1 µM,[12]; 100 nM,88%
same,remaining binding at 1 µM,[12]; 1000 nM,92%
same,remaining binding at 0.1 µM,[13]; 100 nM,67%
same,remaining binding at 1 µM,[13]; 1000 nM,46%
same,remaining binding at 0.1 µM,[14]; 100 nM,100%
same,remaining binding at 1 µM,[14]; 1000 nM,95%
same,remaining binding at 0.1 µM,[15]; 100 nM,100%
same,remaining binding at 1 µM,[15]; 1000 nM,100%
same,remaining binding at 0.1 µM,[16]; 100 nM,100%
same,remaining binding at 1 µM,[16]; 1000 nM,98%
same,remaining binding at 0.1 µM,[17]; 100 nM,100%
same,remaining binding at 1 µM,[17]; 1000 nM,100%
same,remaining binding at 0.1 µM,[18]; 100 nM,67%
same,remaining binding at 1 µM,[18]; 1000 nM,48%
same,remaining binding at 0.1 µM,[19]; 100 nM,100%
same,remaining binding at 1 µM,[19]; 1000 nM,88%
same,remaining binding at 0.1 µM,[20]; 100 nM,85%
same,remaining binding at 1 µM,[20]; 1000 nM,74%
same,remaining binding at 0.1 µM,[21]; 100 nM,91%
same,remaining binding at 1 µM,[21]; 1000 nM,66%
same,remaining binding at 0.1 µM,[22]; 100 nM,100%
same,remaining binding at 1 µM,[22]; 1000 nM,94%
same,remaining binding at 0.1 µM,[23]; 100 nM,63%
same,remaining binding at 1 µM,[23]; 1000 nM,100%
same,remaining binding at 0.1 µM,[24]; 100 nM,100%
same,remaining binding at 1 µM,[24]; 1000 nM,97%
same,remaining binding at 0.1 µM,[25]; 100 nM,100%
same,remaining binding at 1 µM,[25]; 1000 nM,89%
same,remaining binding at 0.1 µM,[26]; 100 nM,62%
same,remaining binding at 1 µM,[26]; 1000 nM,17%
same,remaining binding at 0.1 µM,[27]; 100 nM,100%
same,remaining binding at 1 µM,[27]; 1000 nM,85%
same,remaining binding at 0.1 µM,[28]; 100 nM,83%
same,remaining binding at 1 µM,[28]; 1000 nM,90%
same,remaining binding at 0.1 µM,[29]; 100 nM,76%
same,remaining binding at 1 µM,[29]; 1000 nM,29%
same,remaining binding at 0.1 µM,[30]; 100 nM,91%
same,remaining binding at 1 µM,[30]; 1000 nM,86%
same,remaining binding at 0.1 µM,[31]; 100 nM,88%
same,remaining binding at 1 µM,[31]; 1000 nM,90%
same,remaining binding at 0.1 µM,[32]; 100 nM,100%
same,remaining binding at 1 µM,[32]; 1000 nM,56%
